# Earlier results, collected in US8168440B2, “Polymeric sulfated surfactants for capillary electrophoresis (CE) and CE-mass spectrometry (CE-MS)” (Georgia State University, priority 2006, dated 2012).
# Legend:
# [1] = in vivo
SMILES,Part of the dosage taken excreted in the urine [1],Serum half-life [1],pKa
"CN[C@@H](C)[C@@H](O)c1ccccc1 (racemic) [(±)-pseudoephedrine, pseudoephedrine]",about one-half,5 to 8 h,–
"CC(Oc1ccccc1Cl)C(=O)O (racemic) [(±)-2-PPA, 2-(2-chlorophenoxy)propionic acid]",–,–,3.11±0.1
